Test results published in publication PMC9181887, “In Vitro Antithrombotic, Hematological Toxicity, and Inhibitor Studies of Protocatechuic, Isovanillic, and p-Hydroxybenzoic Acids from Maclura tricuspidata (Carr.) Bur” (Molecules, 2022).
Like-named read-outs stand apart in the source and are kept apart here.

Experiments:
human FXa = biological target: T1, human FXa (Homo sapiens, UniProt P00742); experiment: FXa activity and kinetic/inhibitor assay; assay type: biochemical; settings: for FXa activity: 1–20 μg, vs control, p < 0.05; for IC50 / Kik/Kiv / Kcat / Vmax / Ki: FXa; for inhibition type against FXa: from Kik/Kiv ratio and Lineweaver–Burk plots
T1 construct: purchased Sigma-Aldrich
Protocol: To determine the thrombin activity, various concentrations of compounds were treated with 1 U human thrombin in 100 μL of 20 mM Tris-HCl, as previously described. The reaction solutions were incubated for 15 min at 37 °C. After the incubation, 1 mM chromogenic substrate for thrombin (S-2238, HD-Phe-Pip-Arg-p-nitroanilide) was added and incubated for 1 h at 37 °C. Absorbance was measured at 405 nm to determine the enzymatic activity. To determine FXa activity, various concentrations of the compounds were mixed with 1 U human FXa in 20 mM Tris-HCl (pH 7.4) in volume of 100 μL, followed by incubation for 15 min at 37 °C. After adding 1 mM N-benzoyl-Ile-Glu-Gly-Arg-p-nitroanilide, a highly specific chromogenic peptide substrate for FXa, the reaction solutions were incubated for 1 h at 37 °C. The residual activity of FXa was measured at 405 nm and is presented as a percentage of inhibition. To investigate FXIIIa activity, various concentrations of the compounds were mixed with 1 U human FXIIIa in 20 mM Tris-HCl (pH 7.4) in a volume of 100 μL, followed by, incubation for 15 min at 37 °C as previously described. The residual activity of FXIIIa was measured using casein and fibrinogen-HRP, according to the manufacturer’s instructions, and was presented as a percentage of inhibition. The negative control was generated by treatment with only thrombin, FXa, or FXIIIa without treatment with any compound.
Kinetic assays were performed using PA, IVA, and 4-HA for procoagulant proteases (thrombin and FXa) and fibrinoligase (FXIIIa). The kinetic constants were calculated using Lineweaver–Burk plots based on the initial reaction rates with different concentrations (0.1, 0.5, 1, and 2 mM) of each substrate for thrombin, FXa, and FXIIIa treated with or without the compounds (0.065, 0.13, 0.33, 0.65, and 1.30 mM [1–20 μg]) in a total volume of 100 μL. The Michaelis–Menten constant (Km) and maximal velocity (Vmax) were calculated from the x and y intercepts, respectively. […] The median inhibitory concentration (IC50) was defined as the concentration required to reach a 50% reduction in the activity of the three target factors. The Kik and Kiv inhibition constants were calculated using a previously described method. The inhibition type of the compounds against the three target factors was evaluated according to a previously described inhibition type definition.

[1] = system: fibrin clot network (Alexa Fluor 488 fibrinogen, thrombin); experiment: Fibrin clot assay using a fluorescence microscope; assay type: biochemical, human; settings: fluorescent fibrinogen and thrombin, 30 min
Protocol: Fibrin clots were prepared by mixing 2.6 μM human fibrinogen and 0.4 μM Alexa Fluor 488 fibrinogen with 0.25 U/mL of thrombin in 20 mM Tris-HCl (pH 7.4) in a glass-bottom dish and treated with compounds or 20 IU u-PA as previously described. The mixtures were incubated for 30 min at 37 °C in the dark. Fibrin clots were observed under a fluorescence microscope (Nikon, Eclipse TE 2000-U, Kyoto, Japan) and photographed. Fibrin clots pre-treated with saline (control group) or […] (positive control group). Quantitative analysis of the fluorescent fibrin clots was performed using the ImageJ 1.46 b image analysis software.

platelets = experiment: Hematological study, platelet count by hemocytometer; assay type: cell-based; settings: 10 min, vs control
Protocol: Figure 1 Blood cytotoxic effect of PA (A), IVA (B), and 4-HA (C). Aliquots of washed platelets (10^3/mL), erythrocytes (10^6/mL), and leukocytes (10^3/mL) were treated with or without the compounds for 10 min and cell number was determined by hemocytometer counts. Each value is the mean ± SD of triplicate measurements. * p < 0.05 and ** p < 0.01, compared to each control groups. 10–500, 10–100 μg of each compound treated.
Total white blood cells (leukocytes) and red blood cells (erythrocytes) were counted using a hemocytometer, as previously described. Blood was diluted 1:200 with Hayem’s fluid and the cells were counted in a loaded hemocytometer chamber. To count the blood platelets, blood was diluted in a ratio of 1:20 with a diluting fluid, and four large (1 mm^2) corner squares of the hemocytometer were counted under a light microscope. Aliquots of leukocytes (0.1 mL; 10^3/mL), erythrocytes (0.1 mL; 10^6/mL), and platelets (0.1 mL; 10^3/mL) were treated with or without the compounds for 10 min.

[2] = system: human platelet-poor plasma; experiment: Recalcification time assay; assay type: biochemical; settings: for Absorbance after Reaction: 650 nm after 30 min, NC2 0.2094 ± 0.0305; for Half Time at 1/2 Maximum: NC2 740 ± 20 s; for Fold of Half Time: NC2 = 1.00; for plasma coagulation time: 1–20 μg
Protocol: Figure 5 Effect of PA (A), IVA (B), and 4-HA (C) on recalcification time and plasma density. Human platelet-poor plasma was mixed with PA, IVA, and 4-HA dissolved in DMSO in 96-well plates and incubated for 10 min at 37 °C. Thereafter, 100 mM pre-warmed CaCl2 was added to the mixture and absorbance was taken every 60 s at 650 nm for 30 min in a microplate reader. The plasma density was presented as the optical density at 650 nm after 30 min. The half time (s) was presented as reaching a half-maximum absorbance value. NC1, plasma only; NC2, plasma treated with CaCl2; PC, positive control group (1 U heparin); PA1–20, 1–20 μg of PA treated; IVA1–20, 1–20 μg of IVA treated; 4-HA1–20, 1–20 μg of 4-HA treated.
Recalcification time was measured in a 96-well plate, according to a previously described method, with slight modifications. First, 50 μL of human platelet-poor plasma was mixed with 50 μL of the compounds, vehicle as NC2, or 1 U heparin as PC, and incubated at 37 °C for 10 min. Thereafter, 100 mM pre-warmed CaCl2 was added to the mixture and absorbance was measured at 650 nm every 1 min for 30 min using a microplate reader. The plasma density was presented as the absorbance at 650 nm after 30 min. The half time was presented as reaching a half-maximum absorbance value.

[3] = read-out: Kiv (inhibition constant using Vmax)

T1 sequence (P00742 235-488 limits assumed): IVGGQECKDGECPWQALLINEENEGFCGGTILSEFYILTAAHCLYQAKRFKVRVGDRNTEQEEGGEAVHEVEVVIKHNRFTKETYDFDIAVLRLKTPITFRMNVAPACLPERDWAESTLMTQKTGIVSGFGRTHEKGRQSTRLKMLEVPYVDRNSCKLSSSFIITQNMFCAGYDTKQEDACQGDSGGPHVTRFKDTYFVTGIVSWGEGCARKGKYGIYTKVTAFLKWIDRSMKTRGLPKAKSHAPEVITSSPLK
T1 sequence (P00742 41-179 limits assumed): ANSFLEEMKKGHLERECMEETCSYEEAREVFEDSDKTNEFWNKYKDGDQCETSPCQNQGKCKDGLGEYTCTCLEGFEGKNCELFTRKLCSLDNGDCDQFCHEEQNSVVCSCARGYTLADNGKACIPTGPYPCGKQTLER

Row | Compound | FXa activity (human FXa) | IC50 (human FXa) | Kik/Kiv (human FXa) | Kcat (human FXa; compound 0.065 mM (1 μg)) | Vmax (human FXa; compound 0.065 mM (1 μg)) | Kcat (human FXa; compound 0.13 mM (2 μg)) | Vmax (human FXa; compound 0.13 mM (2 μg)) | Kcat (human FXa; compound 0.325 mM (5 μg)) | Vmax (human FXa; compound 0.325 mM (5 μg)) | Kcat (human FXa; compound 0.65 mM (10 μg)) | Vmax (human FXa; compound 0.65 mM (10 μg)) | Kcat (human FXa; compound 1.3 mM (20 μg)) | Vmax (human FXa; compound 1.3 mM (20 μg)) | Ki (human FXa; read-out: Ki) | Ki (human FXa; [3]) | inhibition type against FXa (human FXa) | fibrin network structure / clot density [1] | Absorbance after Reaction ([2]; 1 μg) | Absorbance after Reaction ([2]; 2 μg) | Absorbance after Reaction ([2]; 5 μg) | other results
1 | O=C(O)c1ccc(O)cc1 [4-HA, 4-hydroxybenzoic acid] | significant reductions | 4.01 mM | 5.3 | 22.14 ± 0.22 s⁻¹ | 0.60 ± 0.03 mU/min | 21.77 ± 0.26 s⁻¹ | 0.59 ± 0.02 mU/min | 21.79 ± 0.44 s⁻¹ | 0.59 ± 0.04 mU/min | 21.18 ± 0.42 s⁻¹ | 0.57 ± 0.02 mU/min | 20.22 ± 0.37 s⁻¹ | 0.55 ± 0.02 mU/min | 3.99 mM | 0.109 mM | non-competitive inhibition | morphological changes in the network and reduced fibrin clot density | 0.1424 ± 0.0122 | 0.1086 ± 0.0083 | 0.0866 ± 0.0051 | effect on platelet number (platelets; 10–50 μg/mL): did not cause any effect; half-life and plasma coagulation time [2]: significant delay; Half Time at 1/2 Maximum ([2]; 2 μg): 950 ± 70 s; Fold of Half Time ([2]; 2 μg): 1.28 ± 0.09; Absorbance after Reaction ([2]; 10 μg): 0.0233 ± 0.0014; Absorbance after Reaction ([2]; 20 μg): 0.0205 ± 0.0029; plasma coagulation time [2]: partially prolonged
2 | COc1ccc(C(=O)O)cc1O [IVA, isovanillic acid] | significant reductions | 4.21 mM | 5.6 | 24.20 ± 0.27 s⁻¹ | 0.66 ± 0.04 mU/min | 22.34 ± 0.41 s⁻¹ | 0.61 ± 0.02 mU/min | 22.23 ± 0.35 s⁻¹ | 0.60 ± 0.03 mU/min | 20.67 ± 0.32 s⁻¹ | 0.56 ± 0.03 mU/min | 18.56 ± 0.30 s⁻¹ | 0.50 ± 0.04 mU/min | 4.19 mM | 0.075 mM | non-competitive inhibition | morphological changes in the network and reduced fibrin clot density | 0.1882 ± 0.0097 | 0.1732 ± 0.0106 | 0.1575 ± 0.0052 | effect on platelet number (platelets; 10–50 μg/mL): did not cause any effect; Half Time at 1/2 Maximum ([2]; 1 μg): 510 ± 25 s; Fold of Half Time ([2]; 1 μg): 0.69 ± 0.03; Half Time at 1/2 Maximum ([2]; 5 μg): 615 ± 20 s; Fold of Half Time ([2]; 5 μg): 0.83 ± 0.03; Absorbance after Reaction ([2]; 10 μg): 0.1377 ± 0.0071; Half Time at 1/2 Maximum ([2]; 10 μg): 355 ± 30 s; Fold of Half Time ([2]; 10 μg): 0.48 ± 0.04; Absorbance after Reaction ([2]; 20 μg): 0.0462 ± 0.0035; plasma coagulation time [2]: partially prolonged; final plasma density ([2]; after 1800 s): significantly decreased; initial response of plasma coagulation (fold of half time) ([2]; range over doses, promoted (shorter half time)): 0.48–0.83 fold
3 | O=C(O)c1ccc(O)c(O)c1 [PA, protocatechuic acid] | significant reductions | 3.09 mM | 1.6 | 21.36 ± 0.54 s⁻¹ | 0.58 ± 0.03 mU/min | 17.35 ± 0.48 s⁻¹ | 0.47 ± 0.02 mU/min | 14.67 ± 0.25 s⁻¹ | 0.40 ± 0.02 mU/min | 12.09 ± 0.29 s⁻¹ | 0.33 ± 0.01 mU/min | 11.62 ± 0.31 s⁻¹ | 0.32 ± 0.01 mU/min | 3.07 mM | 0.023 mM | uncompetitive inhibition type | morphological changes in the network and reduced fibrin clot density | 0.1898 ± 0.0227 | 0.0201 ± 0.0012 | 0.0044 ± 0.0009 | effect on platelet number (platelets; 10–100 μg/mL): did not cause any effect; half-life and plasma coagulation time [2]: significant delay; Half Time at 1/2 Maximum ([2]; 1 μg): 1220 ± 90 s; Fold of Half Time ([2]; 1 μg): 1.65 ± 0.12; Absorbance after Reaction ([2]; 10 μg): −0.0047 ± 0.0004; Absorbance after Reaction ([2]; 20 μg): −0.0103 ± 0.0011; plasma coagulation for 1800 s ([2]; 5–20 μg): completely delayed
